Laboratory results from patent US11447486B2, “2-amino-benzimidazole derivatives and their use as 5-lipoxygenase and/or prostaglandin E synthase inhibitors” (INSTITUT PASTEUR KOREA, priority 2014, dated 2022).

How the values were obtained:
human 5-LOX = target: T1, human 5-LOX (Homo sapiens, UniProt P09917); test: 5-LOX enzyme activity, fluorescence method (5-HPETE, H2DCFDA); type: biochemical; conditions: read-out: 5-LO (IC50)
T1 construct: purchased Cayman 60402; host or cells: insect cells (lysate)
T1 sequence (P09917 1-674): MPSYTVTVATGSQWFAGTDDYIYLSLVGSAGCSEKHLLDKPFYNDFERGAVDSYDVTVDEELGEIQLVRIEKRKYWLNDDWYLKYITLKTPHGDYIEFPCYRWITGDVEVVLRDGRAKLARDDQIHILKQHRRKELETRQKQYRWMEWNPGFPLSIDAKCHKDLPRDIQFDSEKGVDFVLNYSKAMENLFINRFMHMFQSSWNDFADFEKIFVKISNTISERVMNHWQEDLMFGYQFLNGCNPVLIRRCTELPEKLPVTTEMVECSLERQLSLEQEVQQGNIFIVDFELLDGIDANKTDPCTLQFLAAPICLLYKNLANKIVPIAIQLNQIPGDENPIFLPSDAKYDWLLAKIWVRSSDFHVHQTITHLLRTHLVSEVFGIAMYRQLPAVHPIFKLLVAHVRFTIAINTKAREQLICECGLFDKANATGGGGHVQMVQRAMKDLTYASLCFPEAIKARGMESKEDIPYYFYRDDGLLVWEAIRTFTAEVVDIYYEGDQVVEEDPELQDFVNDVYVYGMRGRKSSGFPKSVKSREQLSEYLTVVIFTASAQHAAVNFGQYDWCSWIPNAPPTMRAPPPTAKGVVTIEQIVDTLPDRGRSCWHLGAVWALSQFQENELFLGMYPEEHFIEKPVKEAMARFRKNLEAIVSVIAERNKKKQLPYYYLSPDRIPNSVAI
Method in brief: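 Compound (0.5 nM to 10 uM) pre-incubated 5 min with enzyme; reaction started with ATP (100 uM final) and arachidonic acid (3 uM final). All steps at room temperature, fluorescence read-out.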

[1] = system: Rat basophilic leukemia (RBL) cells; test: LTB4 secretion assay in RBL (rat basophilic leukemia cells); type: cell-based; conditions: Rattus norvegicus, RBL
Method in brief: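 Cells seeded 2×10^4/well the day before, then pre-incubated 15 min at 37 °C in EMEM/0.5% FBS with compound (5 nM to 100 uM). Stimulation with 2.5 uM arachidonic acid plus 5 uM A23187 (final) for 10 min at 37 °C; LTB4 in supernatant quantified by EIA.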

Rat whole blood (RWB) = test: LTB4 secretion assay in RWB (rat whole blood); type: cell-based; conditions: Rattus norvegicus
Method in brief: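 Heparinized blood from male Sprague Dawley rats (6-9 weeks) diluted 1:1 in RPMI, pre-incubated 15 min at 37 °C with compound (2.5 nM to 50 uM). Stimulated with 10 uM calcium ionophore A23187 for 10 min at 37 °C, stopped with ice-cold PBS; LTB4 in supernatant quantified by EIA.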

SMILES	IC50 (human 5-LOX)	EC50 [1]	melting point	EC50 (Rat whole blood (RWB))
Cc1cnn(-c2nc3cc(N4CCN(c5ccc(F)cc5)CC4)ccc3[nH]2)c1 [Compound 25]	> 10 µM	–	> 220 °C	–
Nc1ccc2nc(N)n(Cc3ccc(Oc4ccc(OC(F)(F)F)cc4)cc3)c2c1 [Compound 245]	> 10 µM	< 10 µM	–	10 to 20 µM
CCn1c(NCc2ccc(Oc3ncc(C(F)(F)F)cn3)cc2F)nc2ccc(Nc3cc(C(F)(F)F)n(C)n3)cc21 [Compound 527]	> 10 µM	< 10 µM	–	< 10 µM
CCn1c(NCc2ccc(Oc3ncc(OC(F)(F)F)cn3)cc2)nc2ccc(Nc3cc(C(F)(F)F)n(C)n3)cc21 [Compound 545]	1 to 10 µM	< 10 µM	–	< 10 µM
FC(F)(F)CCNc1nc2ccc(NC3COC3)cc2n1Cc1ccc(Oc2ccc(Cl)cc2)cc1 [Compound 279]	1 to 10 µM	< 10 µM	–	< 10 µM
Cn1c(NCc2ccc(Nc3ncc(Cl)cn3)cc2)nc2ccc(NC3COC3)cc21 [Compound 461]	< 1 µM	< 10 µM	–	< 10 µM
Cn1nc(Nc2ccc3nc(NCc4ccc(Oc5ncc(Cl)cn5)cc4)n(C)c3c2)cc1C(F)(F)F [Compound 468]	< 1 µM	< 10 µM	–	< 10 µM
Cc1cc(CNc2nc3ccc(NC4COC4)cc3n2C)cc(C)c1Oc1ncc(Cl)cn1 [Compound 418]	< 1 µM	> 20 µM	–	> 20 µM
Nc1ccc2[nH]c(NCc3ccc4ccccc4c3)nc2c1 [Compound 81]	< 1 µM	< 10 µM	–	< 10 µM
Cc1cc(Oc2ncc(Cl)cn2)cc(C)c1CNc1nc2ccc(NC3COC3)cc2n1C [Compound 417]	< 1 µM	> 20 µM	–	> 20 µM
CN(C)c1nc2cc(NCc3ccc(Oc4ccc(Cl)cc4)cc3)ccc2[nH]1 [Compound 123]	< 1 µM	< 10 µM	–	< 10 µM
Cc1cc(Nc2ccc3nc(NCc4ccc(Oc5ncc(Cl)cn5)c(Cl)c4)n(C)c3c2)n[nH]1 [Compound 473]	< 1 µM	< 10 µM	–	< 10 µM
Cc1cc(Nc2ccc3nc(NCc4ccc(Oc5nccc(Cl)n5)cc4)n(C)c3c2)n[nH]1 [Compound 489]	< 1 µM	< 10 µM	–	< 10 µM
Nc1ccc2[nH]c(NCc3ccc(Oc4ccc(F)cc4)cc3)nc2c1 [Compound 94]	< 1 µM	< 10 µM	–	< 10 µM
Cn1c(NCc2ccc(Oc3ccc(Cl)cc3)cc2)nc2ccc(NC3COC3)cc21 [Compound 184]	< 1 µM	< 10 µM	–	< 10 µM
Nc1ccc2[nH]c(NCc3cccc(Oc4ccc(Cl)cc4)c3)nc2c1 [Compound 101]	< 1 µM	< 10 µM	–	< 10 µM
Cn1c(NCc2ccc(Oc3ncc(Cl)cn3)cc2F)nc2ccc(NC3COC3)cc21 [Compound 381]	< 1 µM	> 20 µM	–	< 10 µM
CCC(Nc1ccc2[nH]c(N(C)C)nc2c1)c1ccc(Oc2ccc(Cl)cc2)cc1 (centres unmarked) [Compound 128]	< 1 µM	< 10 µM	–	> 20 µM
Cn1c(NCc2ccc(Oc3ccc(Cl)cn3)cc2Cl)nc2ccc(NC3COC3)cc21 [Compound 294]	< 1 µM	< 10 µM	–	> 20 µM
CCC(Nc1nc2ccc(Nc3cc(C)[nH]n3)cc2n1C)c1ccc(Oc2ncc(Cl)cn2)cc1F (centres unmarked) [Compound 537]	< 1 µM	< 10 µM	–	< 10 µM
Nc1ccc2[nH]c(NCCc3ccc(Cl)cc3Cl)nc2c1 [Compound 73]	< 1 µM	< 10 µM	–	10 to 20 µM
Cn1nc(Nc2ccc3nc(NCc4ccc(Oc5ncc(Cl)cn5)cc4)n(C)c3c2)cc1CF [Compound 538]	< 1 µM	< 10 µM	–	< 10 µM
Nc1ccc2nc(NCc3ccc(Oc4ncccn4)cc3)[nH]c2c1 [Compound 154]	< 1 µM	> 20 µM	–	> 20 µM
CCC(Nc1nc2ccc(Nc3cc(C)[nH]n3)cc2n1C)c1ccc(Oc2ncc(C(F)(F)F)cn2)cc1 (centres unmarked) [Compound 534]	< 1 µM	< 10 µM	–	< 10 µM
Nc1ccc2[nH]c(NCc3ccc(S(=O)(=O)c4ccc(Cl)cc4)cc3)nc2c1 [Compound 129]	< 1 µM	< 10 µM	–	> 20 µM
Cn1c(NCc2ccc(Oc3cnc(N)nc3)cc2)nc2ccc(N)cc21 [Compound 360]	< 1 µM	10 to 20 µM	–	< 10 µM
Cn1c(NCc2ccc(Oc3ccc(C(F)(F)F)cn3)cc2)nc2c(F)cc(NC3COC3)cc21 [Compound 552]	< 1 µM	< 10 µM	–	10 to 20 µM
CCC(Nc1nc2ccc(NC3COC3)cc2n1C)c1ccc(Oc2ccc(Cl)cn2)cc1 (centres unmarked) [Compound 275]	< 1 µM	< 10 µM	–	< 10 µM

Other lines, results leading:

IC50 (human 5-LOX)	EC50 [1]	melting point	EC50 (Rat whole blood (RWB))	SMILES
< 1 µM	> 20 µM	> 200 °C	–	Nc1ccc2[nH]c(NCc3ccc(S(=O)(=O)Nc4ccc(Cl)cc4)cc3)nc2c1 [Compound 151]
< 1 µM	10 to 20 µM	–	> 20 µM	Cn1c(NCc2ccc(OCc3ccc(Cl)cn3)cc2)nc2ccc(NC3COC3)cc21 [Compound 315]
< 1 µM	10 to 20 µM	–	< 10 µM	Cn1c(NCc2ccc(Oc3ncc(F)cn3)cc2)nc2ccc(N)cc21 [Compound 336]
< 1 µM	< 10 µM	–	< 10 µM	CC(C)(Nc1ccc2[nH]c(NCc3ccc(Oc4ccc(Cl)cn4)cc3)nc2c1)C(N)=O [Compound 177]
< 1 µM	< 10 µM	–	10 to 20 µM	Nc1ccc2[nH]c(NCc3ccc(Oc4ccc(Cl)cc4Cl)cc3)nc2c1 [Compound 135]
< 1 µM	< 10 µM	–	< 10 µM	Cc1cc(Nc2ccc3nc(NCc4ccc(Oc5ncc(Cl)cn5)cc4)n(C)c3c2)n[nH]1 [Compound 415]
< 1 µM	< 10 µM	–	< 10 µM	Cn1c(NCc2ccc(Oc3ccc(Cl)cn3)cc2)nc2ccc(NC(C)(C)C(N)=O)cc21 [Compound 306]
< 1 µM	< 10 µM	–	< 10 µM	Cc1[nH]nc(Nc2ccc3nc(NCc4ccc(Oc5ncc(Cl)cn5)cc4)n(C)c3c2)c1Cl [Compound 481]
< 1 µM	< 10 µM	–	< 10 µM	Cc1cc(Nc2ccc3nc(NCc4ccc(Oc5ccc(C(F)(F)F)cn5)cc4)n(C)c3c2)n[nH]1 [Compound 495]
< 1 µM	< 10 µM	–	< 10 µM	N#CC1(Nc2ccc3[nH]c(NCc4ccc(Oc5ccc(Cl)cc5)cc4)nc3c2)CCC1 [Compound 137]
< 1 µM	> 20 µM	–	10 to 20 µM	Cn1c(NCc2ccc(Oc3ncccn3)cc2)nc2ccc(N)cc21 [Compound 344]
< 1 µM	> 20 µM	–	10 to 20 µM	Cn1c(NCc2ccc(OCc3ncco3)cc2)nc2ccc(NC3COC3)cc21 [Compound 343]
< 1 µM	> 20 µM	–	> 20 µM	Nc1ccc2[nH]c(NCc3ccc(N4CCC(c5ccc(OC(F)(F)F)cc5)CC4)cc3)nc2c1 [Compound 108]
< 1 µM	< 10 µM	–	> 20 µM	Cn1c(NCc2ccc(Oc3ccc4cc(F)ccc4n3)cc2)nc2ccc(NC3COC3)cc21 [Compound 383]
< 1 µM	< 10 µM	–	< 10 µM	CCC(Nc1nc2ccc(Nc3cc(C4CC4)[nH]n3)cc2n1C)c1ccc(Oc2ncc(Cl)cn2)cc1 (centres unmarked) [Compound 530]
< 1 µM	< 10 µM	–	< 10 µM	Nc1ccc2[nH]c(NCc3ccc(Oc4ccc(Cl)nc4)cc3)nc2c1 [Compound 136]
< 1 µM	> 20 µM	–	> 20 µM	Cn1c(NCc2ccc(C(=O)Nc3ccc(Cl)cn3)cc2)nc2ccc(NC3COC3)cc21 [Compound 303]
< 1 µM	< 10 µM	–	< 10 µM	CNc1nc2ccc(N)cc2n1Cc1ccc(Oc2ccc(Cl)cn2)cc1 [Compound 229]
< 1 µM	< 10 µM	–	< 10 µM	Cn1c(NCc2ccc(Oc3ncc(C#N)cn3)cc2)nc2ccc(NC3COC3)cc21 [Compound 368]
< 1 µM	< 10 µM	–	< 10 µM	CCC(Nc1nc2ccc(Nc3cc(C)[nH]n3)cc2n1C)c1ccc(Oc2ncc(Cl)cn2)cc1 (centres unmarked) [Compound 477]
